In patent US10807982B2, “Bromodomain inhibitors” (CELGENE QUANTICEL RESEARCH, INC., priority 2015, dated 2020):
Where a name gives a salt, the structure may show the parent alone.

Columns and labels:
[1] = system: HL-60, human proleukemia cells; assay: Cell-MTS cellular proliferation assay, HL-60; format: cell-based; conditions: Homo sapiens, HL-60 cells, 168 hr incubation
Method in brief: (§1)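 Cells seeded to reach ~90% confluence at 7 days (Raji 15,000, HL-60 5,000, NCI-H460 3,000 per well); 11-point compound dilution, 100 µM to 2.0 nM final, added 24 h after plating. Exposure 168 hr at 37 °C, 5% CO2; MTS read at OD490. IC50 from background-subtracted OD490 normalized to DMSO controls.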

[2] = biological target: BRD4(BD1) (Homo sapiens (Human), UniProt O60885); assay: In vitro enzyme inhibition assay (BRD4 AlphaScreen, H4-tetraacetyl peptide); format: binding; conditions: BRD4(BD1) 2 nM, peptide 15 nM
Method in brief: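 His-tagged BRD4(BD1), 2 nM, with 15 nM biotinylated H4K5/8/12/16(Ac) peptide in HEPES pH 7.3 buffer, 0.4% DMSO, 20 min RT with compound. Streptavidin donor and Ni-chelate acceptor beads (5 μg/mL) then equilibrated 2 h. AlphaScreen signal; IC50 by four-parameter fit.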

[3] = system: Raji, human Burkitts lymphoma cells; assay: Cell-MTS cellular proliferation assay, Raji; format: cell-based; conditions: Homo sapiens, 168 hr incubation
Method in brief: as §1

[4] = system: NCI-H460, human non-small cell lung cancer cells; assay: Cell-MTS cellular proliferation assay, NCI-H460; format: cell-based; conditions: Homo sapiens, 168 hr incubation
Method in brief: as §1

| SMILES | IC50 [1] [nM] | IC50 [2] [nM] | IC50 [3] [nM] | IC50 [4] [µM] |
| --- | --- | --- | --- | --- |
| CCCCn1c(C)nc2c(NS(C)(=O)=O)cc(-c3cc(C)c(=O)n(C)c3)cc21 [Example 94, N-[1-butyl-6-(1,5-dimethyl-6-oxopyridin-3-yl)-2-methylbenzimidazol-4-yl]methanesulfonamide hydrochloride] | ≤ 500 | ≤ 500 | ≤ 500 | > 5 |
| CCS(=O)(=O)Cc1cc(-c2cc(OC)c(=O)n(C)c2)c2oc(C3CC3)nc2c1 [Example 100, 5-[2-cyclopropyl-5-(ethylsulfonylmethyl)-1,3-benzoxazol-7-yl]-3-methoxy-1-methylpyridin-2-one] | ≤ 500 | ≤ 500 | ≤ 500 | > 5 |
| Cc1cc(-c2cc(NS(C)(=O)=O)c3oc(=O)n(CC4CC4)c3c2)cn(C)c1=O [Example 101, N-[3-(cyclopropylmethyl)-5-(1,5-dimethyl-6-oxopyridin-3-yl)-2-oxo-1,3-benzoxazol-7-yl]methanesulfonamide] | 500 to 5000 | ≤ 500 | 500 to 5000 | > 5 |
| Cc1cc(-c2cc(NS(C)(=O)=O)c3oc(=O)n(Cc4ccc(F)cc4)c3c2)cn(C)c1=O [Example 102, N-[5-(1,5-dimethyl-6-oxopyridin-3-yl)-3-[(4-fluorophenyl)methyl]-2-oxo-1,3-benzoxazol-7-yl]methanesulfonamide] | ≤ 500 | ≤ 500 | ≤ 500 | > 5 |

Further lines, results first:

| IC50 [1] [nM] | IC50 [2] [nM] | IC50 [3] [nM] | IC50 [4] [µM] | SMILES |
| --- | --- | --- | --- | --- |
| ≤ 500 | ≤ 500 | ≤ 500 | > 5 | CCCCn1c(C)nc2c(NS(C)(=O)=O)cc(-c3cc(OC)c(=O)n(C)c3)cc21 [Example 95, N-[1-butyl-6-(5-methoxy-1-methyl-6-oxopyridin-3-yl)-2-methylbenzimidazol-4-yl]methanesulfonamide hydrochloride] |
| ≤ 500 | ≤ 500 | ≤ 500 | > 5 | Cc1cc(-c2cc(CS(C)(=O)=O)c3nc(C)n(CC4CC4)c3c2)cn(C)c1=O [Example 96, 5-[3-(cyclopropylmethyl)-2-methyl-7-(methylsulfonylmethyl)benzimidazol-5-yl]-1,3-dimethylpyridin-2-one] |
| ≤ 500 | ≤ 500 | ≤ 500 | > 5 | CCOc1nc2c(CS(C)(=O)=O)cc(-c3cc(C)c(=O)n(C)c3)cc2n1CC1CC1 [Example 97, 5-[3-(cyclopropylmethyl)-2-ethoxy-7-(methylsulfonylmethyl)benzimidazol-5-yl]-1,3-dimethylpyridin-2-one] |
| ≤ 500 | ≤ 500 | ≤ 500 | > 5 | CCOc1nc2c(CS(C)(=O)=O)cc(-c3cc(OC)c(=O)n(C)c3)cc2n1CC1CC1 [Example 98, 5-[3-(cyclopropylmethyl)-2-ethoxy-7-(methylsulfonylmethyl)benzimidazol-5-yl]-3-methoxy-1-methylpyridin-2-one] |
| ≤ 500 | ≤ 500 | ≤ 500 | > 5 | COc1nc2c(CS(C)(=O)=O)cc(-c3cc(C)c(=O)n(C)c3)cc2n1CC1CC1 [Example 99, 5-[3-(cyclopropylmethyl)-2-methoxy-7-(methylsulfonylmethyl)benzimidazol-5-yl]-1,3-dimethylpyridin-2-one] |
